For test [1], the target named is interaction between PD-1 and PD-L1 (Homo sapiens (Human), UniProt Q9NZQ7). As to the kind of experiment: PD1-PDL1 HTRF binding activity test (Cisbio PD-1/PD-L1 binding assay kit). Conditions: read-out: PD1-PDL1 HTRF Binding Activity IC50. As for the experimental part: A. PD1-PDL1 HTRF Binding Activity Test
The effect of compounds and positive compounds of the examples of the present invention on the interaction between PD-1 and PD-L1 was determined by the PD-1/PD-L1 binding assay kit from Cisbio (#64ICP01PEG or 64ICP01PEH). The detailed experimental process was as follows:
1. Pre-diluted compound solution, 4 μL of Tag1-PD-L1 and 4 μL of Tag2-PD1 were added to each well of a 384-well plate;
3. After incubated for 2 hrs at room temperature or overnight at 4° C., plates were read on Envision of Pelkin Elmer; and readings at 665 nm and 620 nm were recorded, and the ratio of the two readings was taken as a reading for each well;
4. The reading of each well after compound treatment was compared with the reading of DMSO treated wells to obtain the percent inhibition of the compound; and
5. IC50 values of compounds and positive compounds of the examples of the present invention were determined by non-linear regression analysis of percent inhibition at different compound concentrations.
(In general: In TR-FRET formats the signal depends on donor and acceptor labels being close together.)

Test [2] addresses interaction between PD-1 and PD-L1 expressed on cell surfaces (Homo sapiens (Human), UniProt Q9NZQ7). Briefly: Jurkat reporter gene cellular assay (Jurkat/NF-κB-luc/PD1 cells cocultured with Raji-PD-L1 cells, OKT-3 stimulation). The following applies: NF-κB-luc reporter activation fold, 6 hrs; read-out: Cell Activity EC50. Type of test: cell-based. On the procedure:
B. Jurkat Reporter Gene Cellular Assay
The effect of compounds of the examples of the present invention and positive compounds on the interaction between PD-1 and PD-L1 expressed on cell surfaces, and the related influence on T cell functions, were determined by a Jurkat reporter gene cellular assay.
Briefly, the reporter gene plasmid of NF-κB-luc and the plasmid of human PD-1 were transfected into Jurkat cells to establish a stably transfected cell line capable of stably expressing both PD-1 and NF-κB-Luc reporter genes; the expression level of PD-1 on the cell surface was confirmed by flow cytometry: and the expression of the reporter gene was confirmed via the response of the reporter gene stimulated by OKT-3 and Raiji cells.
In addition, the plasmid of human PD-L1 was transfected into Raji cells to obtain a cell line capable of stably expressing PD-L1. Jurkat/NF-κB-luc/PD1 cells and Raji-PD-L1 cells were then cocultured and stimulated with OKT-3. On this basis, the compounds were added, and the enhancement of the signal pathway of T cell activation by the inhibitory effect of the compounds on the interaction between PD-1 and PD-L1 was evaluated by readings of reporter gene responses. The specific experimental process was as follows:
2. 20 μL of Raji-PD-L1 cell suspension was added to each well with 5*10^4 cells for each well, and was incubated in an incubator for 20 min;
3. 20 μL of Jurkat/NF-κb-luc/PD-1 cell suspension was added to each well with 5*10^4 cells for each well, and well mixed, and 6 hrs later, Bright-glo (Promega, E2620) was applied and plates were read on Envision;
4. the reading of each well treated with the compound was compared with the reading of each well treated with DMSO to obtain the activation fold of the compound; and
5. EC50 values of compounds and positive compounds of the examples of the present invention were determined by non-linear regression analysis of activation folds at different compound concentrations.
(Reporter assays use an easily measured gene product as a stand-in for the process of interest.)

Chain of interaction between PD-1 and PD-L1 expressed on cell surfaces (Q9NZQ7 19-290): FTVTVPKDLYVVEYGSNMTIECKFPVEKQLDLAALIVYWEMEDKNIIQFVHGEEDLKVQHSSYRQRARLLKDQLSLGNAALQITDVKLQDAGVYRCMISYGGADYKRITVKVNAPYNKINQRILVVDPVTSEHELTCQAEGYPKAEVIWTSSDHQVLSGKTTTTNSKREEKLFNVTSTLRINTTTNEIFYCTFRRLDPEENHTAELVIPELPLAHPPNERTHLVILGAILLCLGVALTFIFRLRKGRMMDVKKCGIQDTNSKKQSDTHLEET
Chain of interaction between PD-1 and PD-L1 (Q9NZQ7 19-238): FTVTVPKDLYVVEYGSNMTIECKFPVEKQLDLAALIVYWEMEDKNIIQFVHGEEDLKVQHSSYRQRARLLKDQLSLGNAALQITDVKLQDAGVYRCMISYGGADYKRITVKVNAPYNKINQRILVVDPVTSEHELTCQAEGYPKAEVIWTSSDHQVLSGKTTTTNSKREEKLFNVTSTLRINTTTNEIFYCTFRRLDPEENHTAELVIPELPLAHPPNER

For the compound `COC(=O)CNCc1cnc(C(=O)Nc2cccc(-c3cccc(NC(=O)c4cc(C)c(CNCC(=O)OC)cn4)c3C)c2C)cc1C` [Example 24, dimethyl 2,2′-((((((2,2′-dimethyl-[1,1′-biphenyl]-3,3′-diyl)bis(azanediyl))bis(carbonyl))bis(4-methylpyridine-6,3-diyl))bis (methylene))bis(azanediyl))diacetate], in test [1], the IC50 came to 3.2 nM. For the same compound, in test [2], the EC50 was 1050 nM.
Take `Cc1cc(C(=O)Nc2cccc(-c3cccc(NC(=O)c4cc(C)c(CNCC(=O)O)cn4)c3C)c2C)ncc1CNCC(=O)O` [Example 25]: the IC50 in test [1] stood at 0.37 nM. In addition, in test [2], the EC50 came to 124 nM.
Taken in the same sequence, the figures for `COC(=O)[C@H]1CCCCN1Cc1cnc(C(=O)Nc2cccc(-c3cccc(NC(=O)c4cc(C)c(CN5CCCC[C@@H]5C(=O)OC)cn4)c3C)c2C)cc1C` [Example 28, dimethyl 1,1′-(((((2,2′-dimethyl-[1,1′-biphenyl]-3,3′-diyl)bis (azanediyl))bis(carbonyl))bis (4-methylpyridine-6,3-diyl))bis(methylene))(2R,2′R)-bis (piperidine-2-carboxylate)] were 9.55 nM and > 10000 nM.
`Cc1cc(C(=O)Nc2cccc(-c3cccc(NC(=O)c4cc(C)c(CN5CCCC[C@@H]5C(=O)O)cn4)c3C)c2C)ncc1CN1CCCC[C@@H]1C(=O)O` [Example 29, (2R,2′R)-1,1′-(((((2,2′-dimethyl-[1,1′-biphenyl]-3,3′-diyl)bis (azanediyl))bis(carbonyl))bis (4-methylpyridine-6,3-diyl))bis(methylene))bis(piperidine-2-carboxylic acid)]: the IC50 in test [1] was found to be 0.36 nM. Besides, the EC50 in test [2] stood at 1460 nM.
On the same counts, the results for `Cc1cc(C(=O)Nc2cccc(-c3cccc(NC(=O)c4cc(C)c(CN[C@H](CCO)C(=O)O)cn4)c3C)c2C)ncc1CN[C@H](CCO)C(=O)O` [Example 30, (2R,2′R)-2,2′-((((((2,2′-dimethyl-[1,1′-biphenyl]-3,3′-diyl)bis(azanediyl))bis(carbonyl))bis(4-methylpyridine-6,3-diyl))bis(methylene))bis(azanediyl)) bis(4-hydroxybutanoic acid)] are 1.24 nM and 448 nM.
Take `COc1cc(C(=O)Nc2cccc(-c3cccc(NC(=O)c4cc(OC)c(CN5CCOCC5)cn4)c3C)c2C)ncc1CN1CCOCC1` [Example 31, N,N′-(2,2′-dimethyl-[1,1′-biphenyl]-3,3′-diyl)bis(4-methoxy-5-(morpholinomethyl)picolinamide)]: the 50% inhibitory concentration (IC50) in test [1] is 1 nM. The EC50 in test [2] was determined as 2080 nM.
In the case of `CNCc1cnc(C(=O)Nc2cccc(-c3cccc(NC(=O)c4cc(OC)c(CNC)cn4)c3C)c2C)cc1OC` [Example 32, N,N'-(2,2′-dimethyl-[1,1′-biphenyl]-3,3′-diyl)bis(4-methoxy-5-((methylamino)methyl)picolinamide)], the IC50 in test [1] was 0.27 nM. For the same compound, the EC50 in test [2] amounted to 53 nM.
On the same counts, the results for `COc1cc(C(=O)Nc2cccc(-c3cccc(NC(=O)c4cc(OC)c(CNC[C@H](O)CO)cn4)c3C)c2C)ncc1CNC[C@H](O)CO` [Example 33, N,N'-(2,2′-dimethyl-[1,1′-biphenyl]-3,3′-diyl)(5((((S)-2,3-dihydroxypropyl)amino)methyl)-4-methoxypicolinamide)] are 0.65 nM and 109 nM.
On the same counts, the results for `COCCNCc1cnc(C(=O)Nc2cccc(-c3cccc(NC(=O)c4cc(OC)c(CNCCOC)cn4)c3C)c2C)cc1OC` [Example 34, N,N'-(2,2′-dimethyl-[1,1′-biphenyl]-3,3′-diyl)bis(4-methoxy-5-(((2-methoxyethyl)amino)methyl)picolinamide)] are 0.21 nM and 111 nM.
Taken in the same sequence, the figures for `COc1cc(C(=O)Nc2cccc(-c3cccc(NC(=O)c4cc(OC)c(CNCCOC(F)F)cn4)c3C)c2C)ncc1CNCCOC(F)F` [Example 35, N,N'-(2,2′-dimethyl-[1,1′-biphenyl]-3,3′-diyl)bis(5-(((2-(difluoromethoxy)ethyl)amino)methyl)-4-methoxypicolinamide)] were 1.11 nM and 257 nM.
For the compound `COCCN(C)Cc1cnc(C(=O)Nc2cccc(-c3cccc(NC(=O)c4cc(OC)c(CN(C)CCOC)cn4)c3C)c2C)cc1OC` [Example 36, N,N'-(2,2′-dimethyl-[1,1′-biphenyl]-3,3′-diyl)bis(4-methoxy-5-(((2-methoxyethyl)(methyl)amino)methyl)picolinamide)], the IC50 in test [1] is 0.74 nM. Moreover, the EC50 in test [2] is 456 nM.
On the same counts, the results for `COc1cc(C(=O)Nc2cccc(-c3cccc(NC(=O)c4cc(OC)c(CN(C)CCO)cn4)c3C)c2C)ncc1CN(C)CCO` [Example 37, N,N'-(2,2′-dimethyl-[1,1′-biphenyl]-3,3′-diyl)bis(5-(((2-hydroxyethyl) (methyl)amino)methyl)-4-methoxypicolinamide)] are 0.04 nM and 118 nM.
As for `COc1cc(C(=O)Nc2cccc(-c3cccc(NC(=O)c4cc(OC)c(CNCCOC(C)=O)cn4)c3C)c2C)ncc1CNCCOC(C)=O` [Example 38, ((((((2,2′-dimethyl-[1,1′-biphenyl]-3,3′-diyl)bis(azanediyl))bis (carbonyl))bis(4-methoxypyridine-6,3-diyl))bis(methylene))bis (azanediyl))bis(ethane-2,1-diyl) diacetate], in test [1], the IC50 was 0.83 nM. In test [2], the 50% effective concentration (EC50) was determined as 7000 nM.
On the same counts, the results for `COc1cc(C(=O)Nc2cccc(-c3cccc(NC(=O)c4cc(OC)c(CNCCNC(C)=O)cn4)c3C)c2C)ncc1CNCCNC(C)=O` [Example 39, N,N′-(2,2′-dimethyl-[1,1′-biphenyl]-3,3′-diyl)bis(5-(((2-acetamidoethyl)amino)methyl)-4-methoxypicolinamide)] are 0.86 nM and 225 nM.
Regarding `COc1cc(C(=O)Nc2cccc(-c3cccc(NC(=O)c4cc(OC)c(CNCC(C)(C)O)cn4)c3C)c2C)ncc1CNCC(C)(C)O` [Example 40, N,N'-(2,2′-dimethyl-[1,1′-biphenyl]-3,3′-diyl)bis(5-(((2-hydroxy-2-methylpropyl)amino)methyl)-4-methoxypicolinamide)], in test [1], the IC50 was 0.29 nM. The EC50 in test [2] is 172 nM.
Turning to `COc1cc(C(=O)Nc2cccc(-c3cccc(NC(=O)c4cc(OC)c(CNCC5(O)CC5)cn4)c3C)c2C)ncc1CNCC1(O)CC1` [Example 41, N,N'-(2,2′-dimethyl-[1,1′-biphenyl]-3,3′-diyl)bis(5-((((1-hydroxycyclopropyl)methyl)amino)methyl)-4-methoxypicolinamide)], the IC50 in test [1] came to 0.032 nM. Besides, the EC50 in test [2] turned out to be 74 nM.
As to `COc1cc(C(=O)Nc2cccc(-c3cccc(NC(=O)c4cc(OC)c(CN[C@H](C)CO)cn4)c3C)c2C)ncc1CN[C@H](C)CO` [Example 42, N,N'-(2,2′-dimethyl-[1,1′-biphenyl]-3,3′-diyl)bis(5-((((R)-1-hydroxypropan-2-yl)amino)methyl)-4-methoxypicolinamide)], the IC50 in test [1] worked out at 0.28 nM. Besides, the EC50 in test [2] was determined as 60 nM.
On the same counts, the results for `COc1cc(C(=O)Nc2cccc(-c3cccc(NC(=O)c4cc(OC)c(CN[C@@H](C)CO)cn4)c3C)c2C)ncc1CN[C@@H](C)CO` [Example 43, N,N'-(2,2′-dimethyl-[1,1′-biphenyl]-3,3′-diyl)bis(5-((((S)-1-hydroxypropan-2-yl)amino)methyl)-4-methoxypicolinamide)] are 0.29 nM and 11 nM.

For orientation: IC50 means the midpoint of a concentration-inhibition curve. The EC50 is the concentration needed to bring the measured effect to its halfway point.

The values above are taken from patent US11459339B2, “Biaryl derivative, preparation method thereof and pharmaceutical application thereof” (Abbisko Therapeutics Co., Ltd., priority 2018, dated 2022).
